For the first assay, the system named is progranulin. Put plainly: Progranulin induction cellular assay (ELISA of secreted mouse PGRN). To be noted: Mus musculus, BV-2, read-out: EC50 μM. The class given is cell-based. A digest of the protocol:
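Secreted mouse PGRN in culture medium is measured by ELISA. Cells tested are BV-2, primary cortical neurons and primary microglia. BV-2 cells are plated a day ahead, allowed 1 h to attach, then incubated 16 h.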
In the case of `CC(=O)N[C@H]1CO[C@@H](C(=O)N2CCc3ccccc3[C@@H]2c2ccc(F)cc2)C[C@@H]1N` [Compound 5512, N-((3R,4S,6R)-4-amino-6-((S)-1-(4-fluorophenyl)-1,2,3,4-tetrahydroisoquinoline-2-carbonyl)tetrahydro-2H-pyran-3-yl)acetamide], the concentration giving a half-maximal response (EC50) came to 0.005 µM.
On the same count and under the same terms, under `CCNC[C@@]1(O)CO[C@H](C(=O)N2CCc3ccccc3[C@@H]2c2ccc(F)cc2)C1` [Compound 5031, ((2S,4R)-4-((ethylamino)methyl)-4-hydroxytetrahydrofuran-2-yl)((S)-1-(4-fluorophenyl)-3,4-dihydroisoquinolin-2(1H)-yl)methanone] stands 0.326 µM.

The same assay, now with this note: progranulin induction assay; mouse pMG, primary cortical neurons and BV-2 cell lines named, cell type not given; ELISA-based readout; read-out: EC50.
Regarding `CC[S@+2]([O-])([N-]C)[C@H]1CO[C@@H](C(=O)N2CCc3ccccc3[C@@H]2c2ccc(F)cc2)C[C@@H]1N` (single isomer, unassigned) [Compound 5551], the EC50 worked out at 0.027 µM.
Regarding `O=C([C@@H]1C[C@](O)(CNCCO)CO1)N1CCc2ccccc2[C@@H]1c1ccc(F)cc1` (single isomer, unassigned) [Compound 5039], the EC50 was 0.357 µM.
Take `N[C@H]1C[C@H](C(=O)N2CCc3ccccc3[C@@H]2c2ccc(F)cc2)OC[C@@H]1NCC(F)(F)F` [Compound 5539, ((2R,4S,5R)-4-amino-5-((2,2,2-trifluoroethyl)amino)tetrahydro-2H-pyran-2-yl)((S)-1-(4-fluorophenyl)-3,4-dihydroisoquinolin-2(1H)-yl)methanone]: the concentration giving a half-maximal response (EC50) came to 0.001 µM.
In the case of `N[C@H]1C[C@H](C(=O)N2CCc3ccccc3[C@@H]2c2ccc(F)cc2)OC[C@@H]1OCc1ccccc1` [Compound 5531, ((2R,4S,5R)-4-amino-5-(benzyloxy)tetrahydro-2H-pyran-2-yl)((S)-1-(4-fluorophenyl)-3,4-dihydroisoquinolin-2(1H)-yl)methanone], the EC50 amounted to 0.088 µM.
The same measure, in the same setting: to `O=C1CN[C@H]2C[C@H](C(=O)N3CCc4ccccc4[C@@H]3c3ccc(F)cc3)OC[C@@H]2N1` [Compound 5532, (4aR,7R,8aS)-7-((S)-1-(4-fluorophenyl)-1,2,3,4-tetrahydroisoquinoline-2-carbonyl)hexahydro-2H-pyrano[3,4-b]pyrazin-3(4H)-one] belongs 1.68 µM; to `N[C@H]1CO[C@@H](C(=O)N2CCc3ccccc3[C@@H]2c2ccc(F)cc2)C[C@@H]1F` [Compound 5210, ((2R,4S,5S)-5-amino-4-fluorotetrahydro-2H-pyran-2-yl)((S)-1-(4-fluorophenyl)-3,4-dihydroisoquinolin-2(1H)-yl)methanone], 0.596 µM.
As to `N[C@H]1C[C@H](C(=O)N2CCc3ccccc3[C@@H]2c2ccc(F)cc2)OC[C@@H]1O` [Compound 5055, ((2R,4S,5R)-4-amino-5-hydroxytetrahydro-2H-pyran-2-yl)((S)-1-(4-fluorophenyl)-3,4-dihydroisoquinolin-2(1H)-yl)methanone], the EC50 is 0.056 µM.
Same read-out and setting: under `C=CCN[C@H]1C[C@H](C(=O)N2CCc3ccccc3[C@@H]2c2ccc(F)cc2)OC[C@@H]1OC` [Compound 5578] stands 0.03 µM.
For `CC[C@H]1CO[C@@H](C(=O)N2CCc3ccccc3[C@@H]2c2ccc(F)cc2)C[C@@H]1N` [Compound 5526, ((2R,4S,5R)-4-amino-5-ethyltetrahydro-2H-pyran-2-yl)((S)-1-(4-fluorophenyl)-3,4-dihydroisoquinolin-2(1H)-yl)methanone], the EC50 was determined as 0.006 µM.
In the case of `CS[C@@H]1CO[C@@H](C(=O)N2CCc3ccccc3[C@@H]2c2ccc(F)cc2)C[C@@H]1N` [Compound 5425, ((2R,4S,5S)-4-amino-5-(methylthio)tetrahydro-2H-pyran-2-yl)((S)-1-(4-fluorophenyl)-3,4-dihydroisoquinolin-2(1H)-yl)methanone], the EC50 came out at 0.186 µM.
Same read-out and setting: under `O=C([C@H]1OCCNC[C@@H]1O)N1CCc2ccccc2[C@@H]1c1ccc(F)cc1` [Compound 5244] stands 0.091 µM; under `NC[C@@]1(O)CC[C@@H](C(=O)N2CCc3ccccc3[C@@H]2c2ccc(F)cc2)OC1` (single isomer, unassigned) [Compound 5047], 0.086 µM; under `N[C@@H]1CC[C@H](C(=O)N2CCc3ccccc3[C@@H]2c2ccc(F)cc2F)OC1` [Compound 5207], 0.182 µM.
Consider `NC[C@H]1CC[C@H](C(=O)N2CCc3ccccc3[C@@H]2c2ccc(F)cc2)O1` [Compound 5002, ((2R,5R)-5-(aminomethyl)tetrahydrofuran-2-yl)((S)-1-(4-fluorophenyl)-3,4-dihydroisoquinolin-2(1H)-yl)methanone], for which the EC50 came out at 0.278 µM.
Turning to `C[C@H]1CN[C@H]2C[C@H](C(=O)N3CCc4ccccc4[C@@H]3c3ccc(F)cc3)OC[C@@H]2O1` [Compound 5471, ((S)-1-(4-fluorophenyl)-3,4-dihydroisoquinolin-2(1H)-yl)((3S,4aR,7R,8aS)-3-methyloctahydropyrano[3,4-b][1,4]oxazin-7-yl)methanone], the EC50 was found to be 0.109 µM.
In the case of `N[C@@]12CC[C@@](C(=O)N3CCc4ccccc4[C@H]3c3ccc(F)cc3)(C1)OC2` (stereo in doubt) [Compound 5022, (4-amino-2-oxabicyclo[2.2.1]heptan-1-yl)((S)-1-(4-fluorophenyl)-3,4-dihydroisoquinolin-2(1H)-yl)methanone], the EC50 stood at 4.16 µM.
`CC[S@@+2]([NH-])([O-])[C@H]1CO[C@@H](C(=O)N2CCc3ccccc3[C@@H]2c2ccc(F)cc2)C[C@@H]1N` (single isomer, unassigned) [Compound 5549]: the concentration giving a half-maximal response (EC50) worked out at 0.03 µM.
`CCC[C@@H]1CN[C@H]2C[C@H](C(=O)N3CCc4ccccc4[C@@H]3c3ccc(F)cc3)OC[C@@H]2O1` [Compound 5565]: the EC50 was greater than 0.3 µM.
In the case of `CCN[C@H]1C[C@H](C(=O)N2CCc3ccccc3[C@@H]2c2ccc(F)cc2)OC[C@@H]1O` [Compound 5587], the concentration for a half-maximal effect (EC50) amounted to 0.194 µM.
With `COCCN[C@H]1CC[C@@H](C(=O)N2CCc3ccccc3[C@@H]2c2ccc(F)cc2)OC1` [Compound 5029, ((S)-1-(4-fluorophenyl)-3,4-dihydroisoquinolin-2(1H)-yl)((2S,5S)-5-((2-methoxyethyl)amino)tetrahydro-2H-pyran-2-yl)methanone], the EC50 worked out at 0.37 µM.
Still for that read-out and setting: to `O=C([C@H]1CC[C@H](NCCO)CO1)N1CCc2ccccc2[C@@H]1c1ccc(F)cc1` [Compound 5034, ((S)-1-(4-fluorophenyl)-3,4-dihydroisoquinolin-2(1H)-yl)((2R,5S)-5-((2-hydroxyethyl)amino)tetrahydro-2H-pyran-2-yl)methanone] belongs 0.185 µM.
Still for that read-out and setting: to `CN1C(=O)CN[C@H]2C[C@H](C(=O)N3CCc4ccccc4[C@@H]3c3ccc(F)cc3)OC[C@@H]21` [Compound 5533, (4aR,7R,8aS)-7-((S)-1-(4-fluorophenyl)-1,2,3,4-tetrahydroisoquinoline-2-carbonyl)-4-methylhexahydro-2H-pyrano[3,4-b]pyrazin-3(4H)-one] belongs 0.289 µM; to `N[C@@H]1CO[C@@H](C(=O)N2CCc3ccccc3[C@@H]2c2ccc(F)cc2F)C[C@@H]1O` [Compound 5258], 0.062 µM.
Still for that read-out and setting: under `COCCN1CCN[C@H]2C[C@H](C(=O)N3CCc4ccccc4[C@@H]3c3ccc(F)cc3)OC[C@@H]21` [Compound 5601] stands 0.018 µM; under `N[C@@]12CC[C@@](C(=O)N3CCc4ccccc4C3c3ccc(F)cc3)(C1)OC2` (stereo in doubt) [Compound 5020, (4-amino-2-oxabicyclo[2.2.1]heptan-1-yl)((S)-1-(4-fluorophenyl)-3,4-dihydroisoquinolin-2(1H)-yl)methanone], 1.06 µM; under `N[C@H]1C[C@H](C(=O)N2CCc3ccccc3[C@@H]2c2ccc(F)cc2)OC[C@@H]1OC1CC1` [Compound 5530, ((2R,4S,5R)-4-amino-5-cyclopropoxytetrahydro-2H-pyran-2-yl)((S)-1-(4-fluorophenyl)-3,4-dihydroisoquinolin-2(1H)-yl)methanone], 0.0003 µM.
`N[C@@H]1COC(C(=O)N2CCc3ccccc3[C@@H]2c2ccc(F)cc2)C1` (stereo in doubt) [Compound 5011, ((2S,4S)-4-aminotetrahydrofuran-2-yl)((S)-1-(4-fluorophenyl)-3,4-dihydroisoquinolin-2(1H)-yl)methanone]: the EC50 was determined as 1.66 µM.
In the case of `N[C@@H]1CCO[C@H](C(=O)N2CCc3ccccc3[C@@H]2c2ccc(F)cc2)C1` (single isomer, unassigned) [Compound 5081], the EC50 amounted to 0.188 µM.
The same measure, in the same setting: to `COC[C@@H]1CN[C@H]2C[C@H](C(=O)N3CCc4ccccc4[C@@H]3c3ccc(F)cc3)OC[C@@H]2O1` [Compound 5566] belongs greater than 0.3 µM; to `C[C@]1(C(=O)N2CCc3ccccc3[C@@H]2c2ccc(F)cc2)C[C@H](N)CCO1` (single isomer, unassigned) [Compound 5236], 0.393 µM; to `O=C([C@H]1CNCCCO1)N1CCc2ccccc2[C@@H]1c1ccc(F)cc1` (single isomer, unassigned) [Compound 5090], 0.162 µM.
For the compound `CCCN1CCN[C@H]2C[C@H](C(=O)N3CCc4ccccc4[C@@H]3c3ccc(F)cc3)OC[C@@H]21` [Compound 5600], the EC50 is 0.021 µM.
The same measure, in the same setting: under `CCN1CCN[C@H]2C[C@H](C(=O)N3CCc4ccccc4[C@@H]3c3ccc(F)cc3)OC[C@@H]21` [Compound 5599] stands 0.001 µM; under `CC(C)(C)N1CCN[C@H]2C[C@H](C(=O)N3CCc4ccccc4[C@@H]3c3ccc(F)cc3)OC[C@@H]21` [Compound 5603], 0.008 µM; under `N[C@@H]1C[C@H](C(=O)N2CCc3ccccc3[C@@H]2c2ccc(F)cc2)OC[C@@H]1O` [Compound 5074, ((2R,4R,5R)-4-amino-5-hydroxytetrahydro-2H-pyran-2-yl)((S)-1-(4-fluorophenyl)-3,4-dihydroisoquinolin-2(1H)-yl)methanone], 0.23 µM.
Take `NC[C@@H]1CC[C@@H](C(=O)N2CCc3ccccc3[C@@H]2c2ccc(F)cc2)O1` [Compound 5003, ((2S,5S)-5-(aminomethyl)tetrahydrofuran-2-yl)((S)-1-(4-fluorophenyl)-3,4-dihydroisoquinolin-2(1H)-yl)methanone]: the EC50 turned out to be 0.509 µM.

These data come from patent US20230406843A1, “Progranulin Modulators and Methods of Using the Same” (ARKUDA THERAPEUTICS, priority 2020, published 2023).
